According to US20250382332A1, “NOVEL ALPHA-FACTOR BASED PEPTIDES WITH ANTIFUNGAL ACTIVITY” (INVAIO SCIENCES, INC., priority 2024, published 2025):
Peptide text beside a SMILES is read from it.

Tested on: Botrytis cinerea (B05.10)
Experiment: Resazurin antifungal assay of 180 alpha-factor peptide variants towards Botrytis (Example 2)
Type: cell-based
Details: % inhibition of fungal growth, Botrytis conidia, resazurin; for Inhibition at 10 μM: peptide 10 μM; for Inhibition at 20 μM: peptide 20 μM; for Inhibition at 50 μM: peptide 50 μM; for Inhibition at 100 μM: peptide 100 μM
In short: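 B. cinerea B05.10 conidia (5000/well) were exposed to peptides at 100, 50, 20, 15 and 10 μM final for 24 h at 20° C. Resazurin was then added and fluorescence read at 570/620 nm. Percent growth inhibition was calculated against conidia-only wells, with four technical replicates.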

Row | Compound | Inhibition at 10 μM | Inhibition at 20 μM | Inhibition at 50 μM | Inhibition at 100 μM
1 | CSCC[C@H](NC(=O)[C@@H]1CCCN1C(=O)[C@H](CCC(N)=O)NC(=O)CNC(=O)[C@H](CC(N)=O)NC(=O)[C@H](CCCCN)NC(=O)[C@H](CC(C)C)NC(=O)[C@H](CCCCN)NC(=O)[C@H](CC(C)C)NC(=O)[C@H](Cc1c[nH]c2ccccc12)NC(=O)[C@H](CCC(N)=O)NC(=O)[C@@H](N)CCCCN)C(=O)N[C@@H](Cc1ccc(O)cc1)C(=O)O [compound 91] (H-KQWLKLKNGQPMY-OH; N-terminus and C-terminus assumed) | <90% | <90% | 98.66% | 100%
2 | CSCC[C@H](NC(=O)[C@@H]1CCCN1C(=O)[C@H](CCC(N)=O)NC(=O)CNC(=O)[C@@H]1CCCN1C(=O)[C@H](CCCCN)NC(=O)[C@H](Cc1ccccc1)NC(=O)[C@H](CCCNC(=N)N)NC(=O)[C@H](CC(C)C)NC(=O)[C@@H](NC(=O)[C@H](Cc1c[nH]cn1)NC(=O)[C@@H](N)Cc1c[nH]c2ccccc12)[C@@H](C)O)C(=O)N[C@@H](Cc1ccc(O)cc1)C(=O)O [compound 92] (H-WHTLRFKPGQPMY-OH; N-terminus and C-terminus assumed) | <90% | <90% | 98.44% | 98.95%
3 | CSCC[C@H](NC(=O)[C@@H]1CCCN1C(=O)[C@H](CCC(N)=O)NC(=O)CNC(=O)[C@H](CCCNC(=N)N)NC(=O)[C@H](CCCCN)NC(=O)[C@H](CC(C)C)NC(=O)[C@H](CCC(N)=O)NC(=O)[C@H](CC(C)C)NC(=O)[C@@H](NC(=O)[C@H](Cc1c[nH]cn1)NC(=O)[C@@H](N)CCCCN)[C@@H](C)O)C(=O)N[C@@H](Cc1ccc(O)cc1)C(=O)O [compound 93] (H-KHTLQLKRGQPMY-OH; N-terminus and C-terminus assumed) | <90% | <90% | 97.77% | 100%
4 | CSCC[C@H](NC(=O)[C@@H]1CCCN1C(=O)[C@H](CCC(N)=O)NC(=O)CNC(=O)[C@@H]1CCCN1C(=O)[C@H](CCCCN)NC(=O)[C@H](Cc1ccccc1)NC(=O)[C@H](CO)NC(=O)[C@H](CC(C)C)NC(=O)[C@H](Cc1ccc(O)cc1)NC(=O)[C@H](Cc1c[nH]cn1)NC(=O)[C@@H](N)CCCCN)C(=O)N[C@@H](Cc1ccc(O)cc1)C(=O)O [compound 94] (H-KHYLSFKPGQPMY-OH; N-terminus and C-terminus assumed) | <90% | <90% | 97.32% | 100%
5 | CSCC[C@H](NC(=O)[C@@H]1CCCN1C(=O)[C@H](CCC(N)=O)NC(=O)CNC(=O)[C@@H]1CCCN1C(=O)[C@H](CCCCN)NC(=O)[C@H](Cc1ccccc1)NC(=O)[C@@H](NC(=O)[C@H](CC(C)C)NC(=O)[C@H](CC(C)C)NC(=O)[C@H](Cc1c[nH]cn1)NC(=O)[C@@H](N)CCCCN)[C@@H](C)O)C(=O)N[C@@H](Cc1ccc(O)cc1)C(=O)O [compound 95] (H-KHLLTFKPGQPMY-OH; N-terminus and C-terminus assumed) | <90% | <90% | 97.12% | 99.99%
6 | CSCC[C@H](NC(=O)[C@@H]1CCCN1C(=O)[C@H](CCC(N)=O)NC(=O)CNC(=O)[C@@H]1CCCN1C(=O)[C@H](CCCCN)NC(=O)[C@H](CC(C)C)NC(=O)[C@@H](NC(=O)[C@H](CC(C)C)NC(=O)[C@H](Cc1ccccc1)NC(=O)[C@H](Cc1c[nH]cn1)NC(=O)[C@@H](N)CCCCN)[C@@H](C)O)C(=O)N[C@@H](Cc1ccc(O)cc1)C(=O)O [compound 96] (H-KHFLTLKPGQPMY-OH; N-terminus and C-terminus assumed) | <90% | <90% | 95.86% | 99.87%
7 | CSCC[C@H](NC(=O)[C@@H]1CCCN1C(=O)[C@H](C)NC(=O)CNC(=O)[C@@H]1CCCN1C(=O)[C@H](CCCNC(=N)N)NC(=O)[C@H](Cc1ccccc1)NC(=O)[C@H](CCC(N)=O)NC(=O)[C@@H](NC(=O)[C@H](Cc1c[nH]c2ccccc12)NC(=O)[C@H](Cc1c[nH]cn1)NC(=O)[C@@H](N)Cc1c[nH]c2ccccc12)C(C)C)C(=O)N[C@@H](Cc1ccc(O)cc1)C(=O)O [compound 97] (H-WHWVQFRPGAPMY-OH; N-terminus and C-terminus assumed) | <90% | <90% | 95.75% | 100%
8 | CSCC[C@H](NC(=O)[C@@H]1CCCN1C(=O)[C@H](CCC(N)=O)NC(=O)CNC(=O)[C@H](CC(N)=O)NC(=O)[C@H](CCCCN)NC(=O)[C@H](CC(C)C)NC(=O)[C@H](CO)NC(=O)CNC(=O)[C@H](Cc1c[nH]c2ccccc12)NC(=O)[C@H](CCCCN)NC(=O)[C@@H](N)Cc1c[nH]c2ccccc12)C(=O)N[C@@H](Cc1ccc(O)cc1)C(=O)O [compound 98] (H-WKWGSLKNGQPMY-OH; N-terminus and C-terminus assumed) | <90% | <90% | 95.59% | 100%
9 | CC[C@H](C)[C@H](NC(=O)[C@H](CCCCN)NC(=O)[C@H](CC(C)C)NC(=O)[C@H](Cc1c[nH]c2ccccc12)NC(=O)[C@H](Cc1c[nH]cn1)NC(=O)[C@@H](N)Cc1c[nH]c2ccccc12)C(=O)N[C@@H](Cc1c[nH]c2ccccc12)C(=O)N1CCC[C@H]1C(=O)NCC(=O)N[C@@H](CCC(N)=O)C(=O)N1CCC[C@H]1C(=O)N[C@@H](CCSC)C(=O)N[C@@H](Cc1ccc(O)cc1)C(=O)O [compound 99] (H-WHWLKIWPGQPMY-OH; N-terminus and C-terminus assumed) | <90% | <90% | 94.66% | 100%
10 | CSCC[C@H](NC(=O)[C@@H]1CCCN1C(=O)[C@H](CCC(N)=O)NC(=O)CNC(=O)[C@@H]1CCCN1C(=O)[C@H](CCCCN)NC(=O)[C@H](Cc1ccccc1)NC(=O)[C@H](CC(N)=O)NC(=O)[C@H](CC(C)C)NC(=O)[C@H](Cc1ccc(O)cc1)NC(=O)[C@H](CCCCN)NC(=O)[C@@H](N)Cc1c[nH]c2ccccc12)C(=O)N[C@@H](Cc1ccc(O)cc1)C(=O)O [compound 100] (H-WKYLNFKPGQPMY-OH; N-terminus and C-terminus assumed) | <90% | <90% | 93.45% | 100%
11 | CSCC[C@H](NC(=O)[C@@H]1CCCN1C(=O)[C@H](CCC(N)=O)NC(=O)CNC(=O)[C@@H]1CCCN1C(=O)[C@H](CCCCN)NC(=O)[C@H](Cc1ccccc1)NC(=O)[C@H](CCCNC(=N)N)NC(=O)[C@H](CC(C)C)NC(=O)[C@@H](NC(=O)[C@H](Cc1c[nH]cn1)NC(=O)[C@@H](N)Cc1c[nH]c2ccccc12)C(C)C)C(=O)N[C@@H](Cc1ccc(O)cc1)C(=O)O [compound 101] (H-WHVLRFKPGQPMY-OH; N-terminus and C-terminus assumed) | <90% | <90% | 90.50% | 100%
12 | CSCC[C@H](NC(=O)[C@@H]1CCCN1C(=O)[C@H](CCC(N)=O)NC(=O)CNC(=O)[C@@H]1CCCN1C(=O)[C@H](CCCCN)NC(=O)[C@H](CC(C)C)NC(=O)[C@@H](NC(=O)[C@H](CC(C)C)NC(=O)[C@H](Cc1ccc(O)cc1)NC(=O)[C@H](Cc1c[nH]cn1)NC(=O)[C@@H](N)CCCCN)[C@@H](C)O)C(=O)N[C@@H](Cc1ccc(O)cc1)C(=O)O [compound 102] (H-KHYLTLKPGQPMY-OH; N-terminus and C-terminus assumed) | <90% | <90% | <90% | 98.51%
13 | CSCC[C@H](NC(=O)[C@@H]1CCCN1C(=O)[C@H](CCC(N)=O)NC(=O)CNC(=O)[C@@H]1CCCN1C(=O)[C@H](CCCCN)NC(=O)[C@H](CC(C)C)NC(=O)[C@H](C)NC(=O)[C@H](CC(C)C)NC(=O)[C@H](Cc1ccc(O)cc1)NC(=O)[C@H](Cc1c[nH]cn1)NC(=O)[C@@H](N)CCCCN)C(=O)N[C@@H](Cc1ccc(O)cc1)C(=O)O [compound 103] (H-KHYLALKPGQPMY-OH; N-terminus and C-terminus assumed) | <90% | <90% | <90% | 98.77%
14 | CC[C@H](C)[C@H](NC(=O)CNC(=O)[C@H](CCCNC(=N)N)NC(=O)[C@@H](N)CCCCN)C(=O)N[C@@H](CC(N)=O)C(=O)N[C@@H](CC(C)C)C(=O)N[C@@H](CCCCN)C(=O)N1CCC[C@H]1C(=O)NCC(=O)N[C@@H](CCC(N)=O)C(=O)N1CCC[C@H]1C(=O)N[C@@H](CCSC)C(=O)N[C@@H](Cc1ccc(O)cc1)C(=O)O [compound 104] (H-KRGINLKPGQPMY-OH; N-terminus and C-terminus assumed) | <90% | <90% | <90% | 99.59%
